Assays:
[1] = biological target: T1, recombinant human secreted phospholipase A2 (Homo sapiens, UniProt P14555); assay: chromogenic assay for inhibitors of recombinant human secreted phospholipase A2; format: biochemical; settings: diheptanoyl thio-PC substrate, pH 7.5, 40° C. for 30 minutes, absorbance at 405 nanometers, titrated in triplicate
T1 sequence (P14555 21-144): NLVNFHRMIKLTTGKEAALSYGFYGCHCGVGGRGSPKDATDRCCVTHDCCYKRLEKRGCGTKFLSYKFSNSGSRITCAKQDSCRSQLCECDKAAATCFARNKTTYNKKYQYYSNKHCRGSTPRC
Source text: The following chromogenic assay procedure was used to identify and evaluate inhibitors of recombinant human secreted phospholipase A2. The assay described herein has been adapted for high volume screening using 96 well microtiter plates. A general description of this assay method is found in the article, “Analysis of Human Synovial Fluid Phospholipase A2 on Short Chain Phosphatidylcholine-Mixed Micelles: Development of a Spectrophotometric Assay Suitable for a Microtiterplate Reader”, by Laure J. Reynolds, Lori L. Hughes, and Edward A Dennis, Analytical Biochemistry, 204, pp. 190-197, 1992 (the disclosure of which is incorporated herein by reference):
A measured volume of racemic dipheptanoyl thio PC supplied in chloroform at a concentration of 100 mg/ml is taken to dryness and redissolved in 10 millimolar TRITON X-100™ nonionic detergent aqueous solution. Reaction Buffer is added to the solution, then DTNB to give the Reaction Mixture.
The reaction mixture thus obtained contains 1 mM diheptanoly thio-PC substrate, 0.29 mm Triton X-100™ detergent, and 0.12 mm DTMB in a buffered aqueous solution at pH 7.5.
• 1. Add 0.2 ml reaction mixture to all wells; • 2. Add 10 ul test compound (or solvent blank) to appropriate wells, mix 20 seconds; • 3. Add 50 nanograms of sPLA2 (10 microliters) to appropriate wells; • 4. Incubate plate at 40° C. for 30 minutes; • 5. Read absorbance of wells at 405 nanometers with an automatic plate reader.
Tests were done in triplicate. Typically, compounds were tested at a final concentration of 5 ug/ml. […] Lack of color development at 405 nanometers evidenced inhibition. Compounds initially found to be active were re-assayed to confirm their activity and, if sufficiently active, IC50 values were determined. […] In all cases, % inhibition measured at 405 nanometers generated by enzyme reactions containing inhibitors relative to the uninhibited control reactions was determined. […] IC50 values were determined by plotting log concentration versus inhibition values in the range from 10-90% inhibition.

IC50 [1] [µM]	melting point	SMILES
1.06	243 to 253 °C (dec.)	CCc1c(C(=O)C(N)=O)c2c(OCC(=O)O)c3ccccc3cc2n1Cc1ccccc1 [Example 3, 2-[[3-(2-amino-1,2-dioxoethyl)-1-benzyl-2-ethyl-1H-benz[f]indol-4-yl]oxy]acetic acid]
1.3	–	CCOC(=O)COc1c2ccccc2cc2c1c(C(=O)C(N)=O)c(CC)n2Cc1ccccc1 [Example 1, 2-[[3-(2-amino-1,2-dioxoethyl)-1-benzyl-2-ethyl-1H-benz[f]indol-4-yl]oxy]acetic acid ethyl ester]
14.3	–	CCc1c(C(=O)C(N)=O)c2c(OCC(=O)OCc3ccccc3)c3ccccc3cc2n1Cc1ccccc1 [Example 2, 2-[[3-(2-amino-1,2-dioxoethyl)-1-benzyl-2-ethyl-1H-benz[f]indol-4-yl]oxy]acetic acid benzyl ester]

Source: US6930123B2, “sPLA2 inhibitors” (Eli Lilly and Company, priority 2000, dated 2005)
